Experimental findings from patent US20180201650A1 (BGI SHENZHEN, priority 2014, published 2018) are described below.

This assay has as its system HVA calcium channel. It is filed as cell-based, rat.

Each structure is given as a SMILES string.

Regarding `COC(=O)C1=C(C)NC(C)=C(C(=O)OC)C1c1ccccc1[N+](=O)[O-]` [Nifedipine, reference compound], the “current after loading (pA)” value is listed as −734.31 pA and the “current before loading (pA)” value was −1471.35 pA. Also, the “inhibition rate (%)” value (10 μM) is on record as 50.09%.
